Reference: US20120178626A1, “SYNERGISTIC HERBICIDAL COMPOSITION CONTAINING PROPYZAMIDE AND BENFLURALIN” (DOW AGROSCIENCES LLC, priority 2011, published 2012)

What was measured:
Assay in all cases: Field trial, percent visual weed control, soil-applied tank mixes
Type in all cases: in vivo
Conditions in all cases: applied to soil
[1] = tested on: Venice mallow (Hibiscus trionum, HIBTR)
Description: (§1) These trials were conducted under field conditions in USA. Trial sites were located in California. The trials were conducted using normal small plot research methodology. Trial plots were between 2 to 4.5 meters (m) wide by 5.5 to 10 m long. All treatments were applied using a randomized complete block trial design with 4 replications per treatment. The trial sites had naturally occurring populations of weeds. The weed spectrum included, but was not limited to, redroot pigweed (Amaranthus retroflexus, AMARE), Shepherds purse (Capsella bursa-pastoris, CAPBP) and Venice mallow (Hibiscus trionum, HIBTR). Treatments consisted of tank mixes of the commercial formulations of propyzamide and benfluralin applied in water directly to the soil. The application volumes were between 93.5 to 187 liters per hectare (L/ha). All application were made using precision gas backpack hand sprayers using a 2 or 3 m boom using flat fan (80° or 110°) nozzles to broadcast the treatments on the soil.
(§2) The treated plots and control plots were rated blind at various intervals after application. Ratings were based of Percent (%) Visual weed control, where 0 corresponds to no control and 100 corresponds to complete control.
(§3) Data was collected for all trials and analyzed using various statistical methods.
(§4) Colby's equation was used to determine the herbicidal effects expected from the mixtures (Colby, S. R. Calculation of the synergistic and antagonistic response of herbicide combinations. Weeds 1967 15, 20-22).
(§5) The following equation was used to calculate the expected activity of mixtures containing two active ingredients, A and B:
(§6) A=observed efficacy of active ingredient A at the same concentration as used in the mixture;
(§7) B=observed efficacy of active ingredient B at the same concentration as used in the mixture.

[2] = tested on: Shepherds purse (Capsella bursa-pastoris, CAPBP)
Description: as §1, §2, §3, §4, §5, §6, §7

[3] = tested on: redroot pigweed (Amaranthus retroflexus, AMARE)
Description: as §1, §2, §3, §4, §5, §6, §7

[4] = propyzamide 210 g ai/ha, benfluralin 0, 50 Days After Application
[5] = propyzamide 0, benfluralin 340 g ai/ha, 50 Days After Application

Row | SMILES | % Weed Control HIBTR, Ob (percent control observed) [1, 4] [%] | % Weed Control CAPBP, Ob (percent control observed) [2, 4] [%] | % Weed Control AMARE, Ob (percent control observed) [3, 4] [%] | % Weed Control HIBTR, Ob (percent control observed) [1, 5] [%] | % Weed Control CAPBP, Ob (percent control observed) ([2]; propyzamide 0, benfluralin 670 g ai/ha, 50 Days After Application) [%] | % Weed Control AMARE, Ob (percent control observed) [3, 5] [%]
1 | C#CC(C)(C)NC(=O)c1cc(Cl)cc(Cl)c1 [Propyzamide, 3,5-dichloro-N-(1,1-dimethyl-2-propynyl)-benzamide] | 20 | 20 | 13 | – | – | –
2 | CCCCN(CC)c1c([N+](=O)[O-])cc(C(F)(F)F)cc1[N+](=O)[O-] [Benfluralin, N-butyl-N-ethyl-2,6-dinitro-4-(trifluoromethyl)-benzenamine] | – | – | – | 0 | 3 | 0
